ChEMBL document CHEMBL1140941 (J Med Chem, 2009)
Activity calls are given as the source filed them. The calls are words filed in the database; no cut-off is given here.

Experiments:
[1] = molecular target: Estrogen receptor beta (Homo sapiens) (UniProt Q92731); assay: Agonist activity at gal-ERbeta expressed in african green monkey CV1 cells co-expressing MH100 up to 10 uM by luciferase reporter gene assay relative to control; format: functional, cell-based; settings: CV-1
[2] = molecular target: Oxysterols receptor LXR-beta (Homo sapiens) (UniProt P55055); assay: Agonist activity at LXRbeta expressed in african green monkey CV1 cells co-expressing LXRE up to 10 uM by luciferase reporter gene assay relative to control; format: functional, cell-based; settings: CV-1
Mus musculus [3] = assay: Reduction of plasma total cholesterol level in western diet-induced hyperlipidemia LDLR knockout mouse model at 3 mg/kg, po administered for 6 weeks; format: functional; set-up: scale not given: the % may be the effect or the level left
[4] = Cmax in CD rat at 3 mg/kg, po; format: ADME, organism-based; set-up: dose 3 mg/kg, route oral; settings: in vivo
Rattus norvegicus = assay: Clearance in CD rat assessed as liver blood flow at 3 mg/kg; format: ADME, organism-based; set-up: dose 3 mg/kg; settings: in vivo
[5] = molecular target: T1, Progesterone receptor (Homo sapiens) (UniProt P06401); assay: Agonist activity at gal-PR expressed in african green monkey CV1 cells co-expressing MH100 by luciferase reporter gene assay; format: functional, cell-based; settings: CV-1
T1 sequence (whole entry): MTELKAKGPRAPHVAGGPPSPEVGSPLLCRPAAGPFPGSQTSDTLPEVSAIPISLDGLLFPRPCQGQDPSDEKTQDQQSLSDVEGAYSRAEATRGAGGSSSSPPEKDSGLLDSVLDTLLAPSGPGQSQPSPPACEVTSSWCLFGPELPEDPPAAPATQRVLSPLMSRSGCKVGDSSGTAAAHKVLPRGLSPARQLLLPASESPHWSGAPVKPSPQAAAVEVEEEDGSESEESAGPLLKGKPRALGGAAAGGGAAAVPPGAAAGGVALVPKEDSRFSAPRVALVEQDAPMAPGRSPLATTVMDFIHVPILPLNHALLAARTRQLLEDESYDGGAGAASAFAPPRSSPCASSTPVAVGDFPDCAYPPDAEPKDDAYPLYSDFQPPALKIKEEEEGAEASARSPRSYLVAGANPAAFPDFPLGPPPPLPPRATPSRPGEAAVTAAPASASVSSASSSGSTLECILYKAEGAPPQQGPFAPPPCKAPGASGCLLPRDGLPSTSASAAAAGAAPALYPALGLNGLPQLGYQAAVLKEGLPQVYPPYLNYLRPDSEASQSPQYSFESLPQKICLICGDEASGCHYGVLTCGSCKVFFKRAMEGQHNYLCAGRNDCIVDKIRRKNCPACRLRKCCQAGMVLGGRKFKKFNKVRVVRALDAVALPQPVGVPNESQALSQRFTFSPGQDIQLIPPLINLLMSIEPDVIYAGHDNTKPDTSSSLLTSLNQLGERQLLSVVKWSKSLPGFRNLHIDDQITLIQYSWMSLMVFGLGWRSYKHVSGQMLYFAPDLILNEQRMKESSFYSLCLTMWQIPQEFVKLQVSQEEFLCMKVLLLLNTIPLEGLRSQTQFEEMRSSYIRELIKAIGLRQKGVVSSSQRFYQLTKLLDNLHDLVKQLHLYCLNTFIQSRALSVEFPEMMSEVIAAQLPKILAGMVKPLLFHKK

[6] = molecular target: Retinoic acid receptor RXR-alpha (Homo sapiens) (UniProt P19793); assay: Agonist activity at RXRalpha-LBD expressed in african green monkey CV1 cells co-expressing MH100 up to 10 uM by luciferase reporter gene assay relative to control; format: functional, cell-based; settings: CV-1
[7] = molecular target: Oxysterols receptor LXR-alpha (Homo sapiens) (UniProt Q13133); assay: Agonist activity at LXRalpha expressed in african green monkey CV1 cells co-expressing LXRE by luciferase reporter gene assay; format: functional, cell-based; settings: CV-1
Mus musculus [8] = assay: Inhibition of preatherosclerotic lesion in LDLR knockout mouse model at 3 mg/kg, po administered for 6 weeks by en-face analysis; format: functional; set-up: scale not given: the % may be the effect or the level left

Sequence of Oxysterols receptor LXR-beta (Homo sapiens) (P55055 whole entry): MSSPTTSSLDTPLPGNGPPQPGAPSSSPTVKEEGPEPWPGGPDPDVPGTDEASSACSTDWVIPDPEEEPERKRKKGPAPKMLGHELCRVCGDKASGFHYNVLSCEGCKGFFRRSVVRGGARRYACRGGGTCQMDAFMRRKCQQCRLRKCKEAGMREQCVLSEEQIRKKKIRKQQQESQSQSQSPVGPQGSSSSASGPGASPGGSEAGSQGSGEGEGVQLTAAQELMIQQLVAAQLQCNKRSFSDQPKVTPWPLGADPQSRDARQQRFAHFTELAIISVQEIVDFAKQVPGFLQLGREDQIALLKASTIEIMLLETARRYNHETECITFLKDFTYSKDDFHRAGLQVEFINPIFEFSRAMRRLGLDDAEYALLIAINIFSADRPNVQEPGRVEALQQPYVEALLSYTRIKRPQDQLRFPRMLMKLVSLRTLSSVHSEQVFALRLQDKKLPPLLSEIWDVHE
Sequence of Retinoic acid receptor RXR-alpha (Homo sapiens) (P19793 whole entry, the tested form may be a part): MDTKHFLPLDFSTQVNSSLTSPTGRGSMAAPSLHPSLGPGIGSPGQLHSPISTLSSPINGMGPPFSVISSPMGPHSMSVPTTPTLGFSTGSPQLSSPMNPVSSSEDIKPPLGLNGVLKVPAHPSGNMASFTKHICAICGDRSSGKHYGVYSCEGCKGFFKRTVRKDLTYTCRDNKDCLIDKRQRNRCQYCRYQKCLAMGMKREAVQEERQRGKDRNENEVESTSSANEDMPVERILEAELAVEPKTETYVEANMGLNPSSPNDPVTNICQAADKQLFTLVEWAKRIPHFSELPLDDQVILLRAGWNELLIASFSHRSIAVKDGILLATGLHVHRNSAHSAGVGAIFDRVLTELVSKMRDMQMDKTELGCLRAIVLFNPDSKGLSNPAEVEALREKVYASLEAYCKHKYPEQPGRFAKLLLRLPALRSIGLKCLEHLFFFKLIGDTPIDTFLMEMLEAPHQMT
Sequence of Oxysterols receptor LXR-alpha (Homo sapiens) (Q13133 whole entry): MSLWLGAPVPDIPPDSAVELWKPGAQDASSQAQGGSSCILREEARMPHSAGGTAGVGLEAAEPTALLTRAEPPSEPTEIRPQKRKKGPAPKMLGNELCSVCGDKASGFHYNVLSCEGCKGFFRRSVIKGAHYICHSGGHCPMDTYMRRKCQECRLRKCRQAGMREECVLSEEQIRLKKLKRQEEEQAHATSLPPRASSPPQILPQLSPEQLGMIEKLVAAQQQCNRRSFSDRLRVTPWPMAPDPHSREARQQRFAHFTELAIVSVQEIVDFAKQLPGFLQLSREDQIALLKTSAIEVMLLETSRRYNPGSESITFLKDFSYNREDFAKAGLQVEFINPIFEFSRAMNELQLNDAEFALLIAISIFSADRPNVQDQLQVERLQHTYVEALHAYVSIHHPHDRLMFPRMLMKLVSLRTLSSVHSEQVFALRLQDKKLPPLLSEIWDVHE
Sequence of Estrogen receptor beta (Homo sapiens) (Q92731 whole entry): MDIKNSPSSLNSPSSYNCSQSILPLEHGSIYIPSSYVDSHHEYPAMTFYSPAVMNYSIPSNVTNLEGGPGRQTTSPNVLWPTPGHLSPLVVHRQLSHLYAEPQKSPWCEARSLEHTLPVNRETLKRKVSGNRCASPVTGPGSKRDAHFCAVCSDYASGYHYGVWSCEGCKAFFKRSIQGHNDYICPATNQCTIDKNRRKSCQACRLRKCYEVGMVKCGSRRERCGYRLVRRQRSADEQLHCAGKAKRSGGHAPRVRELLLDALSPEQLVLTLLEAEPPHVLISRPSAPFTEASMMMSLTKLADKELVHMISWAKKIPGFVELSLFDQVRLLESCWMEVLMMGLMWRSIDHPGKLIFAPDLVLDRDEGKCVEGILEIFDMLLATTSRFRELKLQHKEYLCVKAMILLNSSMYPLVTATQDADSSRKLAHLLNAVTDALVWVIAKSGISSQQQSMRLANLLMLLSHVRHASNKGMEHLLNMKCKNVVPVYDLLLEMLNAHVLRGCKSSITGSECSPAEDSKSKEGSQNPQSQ

CC(C)OC(=O)C1=CN(C(=O)c2ccc(F)c(F)c2)CC(C)(C)c2c1[nH]c1ccccc21 [TUROFEXORATE ISOPROPYL]
Activity [1]: inactive
Activity [2]: inactive
Activity (Mus musculus [3]): 50%
Cmax [4]: 500 nM
LBF (Rattus norvegicus): 10%
Activity [5]: inactive
Activity [6]: inactive
Activity [7]: inactive
Activity (Mus musculus [8]): 36%
